Common to all, as to assay: inhibition of tumour cell growth, NCI panel, 48 h
Assay [1] has as its system NCI-H522 lung.
Assay [2] concerns MDA-MB-435.
Assay [3] has as its system KM12 colon.
Assay [4] has as its system SK-MEL-5 melanoma.
The test system of assay [5] is DU-145 prostate.
Assay [6] relates to A498 renal.
Assay [7] concerns COLO 205 colon.
For assay [8], the system named is MDA-N.
Assay [9] concerns NCI/ADR-RES ovarian.
For assay [10], the system named is HT29 colon.

Values joined by “and” are separate entries in the source; they are usually repeats but may differ in a detail not shown here. Equal values may be shown once.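 Test compounds were applied to cells in 96-well plates for 48 hours at 5 doses. GI50 marks 50% less growth. TGI denotes the concentration required for complete inhibition of growth.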 Where only a bound is given, the exact number is not on record here.

In PubChem BioAssay (NCI) one finds TGI and GI50 data, which are given here for 26 molecules.

Consider `O=c1[nH]nc(Nc2ccc(Cl)cc2)c2nnn(C3CCCCC3)c12`, for which the TGI in [1] is 81.7 µM; in [2] it was above 100 µM; in [3], above 100 µM; in assay [4], above 100 µM; in assay [5], above 100 µM; in [6] it was above 100 µM. In addition, the TGI in assay [7], in [8], in assay [9] and in assay [10] was above 100 µM each time.

On to `OCCN1CCN(c2nc(N3CCCC3)c3nc(Cl)c(NCc4ccccc4)nc3n2)CC1`, for which the TGI in [1] turned out to be 18.7 µM; in [2], 10.7 µM; in assay [3], 15.8 µM; in assay [4], 7.82 µM; in [5] it was 23.6 µM; in assay [6] it was 25 µM. For the same molecule, the TGI in [7] stood at 6.73 µM; in assay [8] it was 8.47 µM; in assay [9], 26.7 µM; in [10], 10.6 µM.

Consider `CC(=O)Oc1cc2c(cc1OCC(F)(F)F)[C@H]1CC[C@]3(C)[C@@H](OC(C)=O)CC[C@H]3[C@@H]1CC2=O`, for which the TGI in assay [1] was above 70 µM; in [2], above 72.1 µM; in assay [3] it was 74.9 µM; in [4], 49.2 µM; in assay [5] it was 51.6 µM; in assay [6], 27 µM. The TGI in assay [7] is 89.6 µM; in assay [8], above 100 µM; in assay [9], 43.6 µM; in [10], above 63.8 µM.

Take `NC(=O)CSc1nc2ccccc2c(=O)n1N`: the TGI in assay [1], in assay [2], in assay [3], in [4], in [5] and in assay [6] was above 100 µM throughout. For the same molecule, the TGI in assay [7], in assay [8], in assay [9] and in [10] was above 100 µM each time.

Turning to `CC1(C)C(=O)/C(=C/c2ccccc2)C(C)(C)C1(C)C`, the TGI in assay [1] was above 100 µM; in [2], above 86.6 µM; in assay [3], above 100 µM; in assay [4], above 100 µM; in assay [5] it was above 100 µM; in [6], above 96.2 µM. Further, the TGI in assay [7], in [8], in assay [9] and in [10] was above 100 µM throughout.

As for `Cc1cc(NC(=O)NC(=O)c2ccccc2NC(=O)CN(C)C)ccc1Oc1ncc(Br)cn1`, the TGI is 10.3 µM in [1]; 3.09 µM in assay [2]; above 100 µM in assay [3]; above 100 µM in assay [4]; above 100 µM in assay [5]; 17 µM in assay [6]. In addition, the TGI was 39.7 µM in assay [7], 0.505 µM in assay [8], above 27.8 µM in assay [9] and 31.1 µM in assay [10].

Turning to `O=C1Nc2noc(=O)nc2NO1`, the TGI in [1], in assay [2], in assay [3], in assay [4], in [5] and in [6] was above 200 µM each time. For the same molecule, the TGI in [7], in [8], in assay [9] and in assay [10] was above 200 µM each time.

As to `COC(=O)Nc1cc(OCCCOC(C)=O)c2[nH]c(C(=O)OC)cc2c1C[C@H](O)CO`, the TGI in [1] is 26.9 µM; in assay [2], above 100 µM; in assay [3], above 100 µM; in assay [4], above 100 µM; in assay [5] it was above 100 µM; in assay [6], above 100 µM. Also, the TGI in assay [7], in [8], in [9] and in [10] was above 100 µM in each case.

For the molecule `O=c1c2ccc(Cl)cc2oc2c(CSc3ccccc3)cccc12`, the TGI in [1] is above 53.1 µM; in [2], above 68.3 µM; in [3], above 65.3 µM; in assay [4], above 92.1 µM; in assay [5] it was above 100 µM; in assay [6], above 79.1 µM. The TGI in [7], in [8], in [9] and in assay [10] was above 100 µM in each case.

Take `COc1cc2c(cc1O)C(Cc1ccc(OCc3ccccc3)c(OCc3ccccc3)c1)N(C(=O)NCCc1ccccc1)CC2` (stereo unspecified): the TGI is 72.9 µM in [1]; above 100 µM in [2]; above 100 µM in [3]; above 100 µM in assay [4]; above 100 µM in assay [5]; above 100 µM in assay [6]. In addition, the TGI in assay [7], in [8], in [9] and in [10] was above 100 µM each time.

On to `CC(=O)O[C@H]1CC[C@@H](OC(C)=O)[C@H]2[C@H](O)[C@H](O)[C@@H]1n1c(=O)n(-c3ccccc3)c(=O)n12`, for which the TGI in assay [1], in assay [2], in assay [3], in assay [4], in [5] and in assay [6] was above 100 µM throughout. Also, the TGI in assay [7], in assay [8], in assay [9] and in assay [10] was above 100 µM throughout.

As to `CCCCCCCCCCCC1=C(O)C(=O)C(CC2=C(O)C(=O)C(CCCCCCCCCCC)=C(O)C2=O)=C(O)C1=O`, the TGI in assay [1] was above 100 µM; in assay [2], above 100 µM; in assay [3], above 100 µM; in [4], above 100 µM; in assay [5], above 100 µM; in [6], 98.2 µM. The TGI in [7], in [8], in [9] and in [10] was above 100 µM in each case.

For `COC(=O)CCC(C)[C@H]1CCC2C3CC[C@@H]4CC5(CC[C@]4(C)C3C[C@H](OC(C)=O)[C@@]21C)OOC1(CCCCC1)OO5` (stereo partly specified), the TGI in assay [1] is 40.5 µM; in assay [2], 37 µM; in [3], above 100 µM; in assay [4] it was 80.9 µM; in assay [5] it was 43.1 µM; in [6] it was above 100 µM. Also, the TGI was above 100 µM in [7], 35 µM in assay [8], above 100 µM in [9] and above 100 µM in assay [10].

Regarding `CCNC(=S)N/N=C(/C)c1cccc(/C(C)=N\NC(=S)NCC)n1`, the TGI in assay [1] is 24.5 µM; in assay [2], above 100 µM; in assay [3], above 51.1 µM; in assay [4] it was 5.52 µM; in [5] it was above 36.6 µM; in assay [6], 56.7 µM. For the same molecule, the TGI in assay [7] was above 23.5 µM; in assay [8] it was above 45.8 µM; in assay [9], 21.1 µM; in assay [10] it was 46.2 µM.

For the molecule `Cc1nc(C(=Nc2ccc(Br)cc2)Nn2cnnc2)no1`, the TGI in [1], in assay [2], in assay [3], in assay [4], in assay [5] and in assay [6] was above 100 µM throughout. The TGI in [7], in [8], in assay [9] and in assay [10] was above 100 µM each time.

Consider `O=C(O)[C@H]1NC[C@H]2C(Br)=NO[C@@H]12`, for which the TGI in [1], in assay [2], in [3], in assay [4], in assay [5] and in assay [6] was above 100 µM each time. For the same molecule, the TGI in assay [7], in assay [8], in assay [9] and in assay [10] was above 100 µM throughout.

With `C[C@H]1CCC/C=C/[C@@H]2C[C@H](OC3OC(CO)C(O)C(O)C3O)C[C@H]2[C@H](O)/C=C/C(=O)O1` (stereo partly specified), the TGI in [1] was above 100 µM; in [2], above 100 µM; in assay [3] it was 98 µM; in [4] it was 31.6 µM; in [5] it was above 100 µM; in assay [6] it was 69.1 µM. In addition, the TGI was 31.9 µM in assay [7], above 100 µM in [8], above 100 µM in [9] and above 100 µM in assay [10].

With `COc1ccc(S(=O)(=O)NC(CCC(=O)NC(N)=O)C(=O)NC(N)=O)cc1` (stereo unspecified), the TGI in assay [1], in [2], in assay [3], in assay [4], in assay [5] and in [6] was above 100 µM each time. Also, the TGI in [7], in assay [8], in [9] and in assay [10] was above 100 µM in each case.

As to `Cc1ccc(C(=O)Nc2ccc(CP(=O)(O)O)cc2CP(=O)(O)O)cc1N`, the TGI in assay [1], in assay [2], in [3], in assay [4], in assay [5] and in [6] was above 100 µM each time. Also, the TGI in assay [7], in assay [8], in [9] and in assay [10] was above 100 µM in each case.

Regarding `C[n+]1c2ccccc2n2c3ccccc3c(NCCCn3ccnc3)c(C#N)c21`, the TGI came out at 2.18 µM in assay [1]; 9.4 µM in assay [2]; 17.7 µM in [3]; 13.1 µM in [4]; 15.5 µM in [5]; 46.5 µM in assay [6]. Also, the TGI in [7] was 4.4 µM; in assay [8], 9.82 µM; in assay [9], above 93.5 µM; in [10], 37.9 µM.

`CN(C)c1cccc2c(S(=O)(=O)NCCN)cccc12`: the TGI was above 100 µM in [1]; above 100 µM in assay [2]; above 100 µM in assay [3]; above 100 µM in assay [4]; above 100 µM in assay [5]; 69.8 µM in assay [6]. Besides, the TGI in [7], in [8], in assay [9] and in assay [10] was above 100 µM throughout.

With `Cc1nnc(SCc2nc(C#N)c(C#N)nc2CSc2nnc(C)s2)s1`, the TGI in assay [1] was 9.22 µM; in assay [2], 26.4 µM; in assay [3], 37 µM; in assay [4], 29.2 µM; in assay [5], 29.2 µM; in [6], above 66.5 µM. In addition, the TGI in [7] was 25.5 µM; in assay [8], 49.9 µM; in assay [9], above 92.2 µM; in [10], 37.2 µM.

As to `COc1ccccc1N=Nc1c(O)ccc2ccccc12`, the GI50 in [1] was > 100 µM and 41.8 µM. For the same molecule, the TGI in assay [1] is above 100 µM; in [2], above 100 µM; in assay [3], above 100 µM; in assay [4], > 89.9 µM and 59.2 µM; in assay [5], above 100 µM; in assay [6] it was 62.3 µM and 89.2 µM. Besides, the TGI in assay [7], in assay [8], in [9] and in [10] was above 100 µM each time.

Turning to `C/C(=N/NC(=S)Nc1ccc(C)cc1)c1ccccn1`, the TGI in assay [1] was found to be 12 µM; in assay [2], 15 µM; in assay [3], 15.5 µM; in assay [4] it was 2.29 µM; in assay [5], 10.4 µM; in assay [6], 15.9 µM. The TGI in assay [7] is 1.95 µM; in assay [8], 13.8 µM; in assay [9], 1.34 µM; in assay [10] it was 19.4 µM.

`O=C(/C=C/c1ccccc1)c1cc(CN2CCOCC2)c(O)c(CN2CCOCC2)c1`: the TGI was above 100 µM in [1]; 32.3 µM in assay [2]; 33.1 µM in [3]; 26 µM in assay [4]; 29.8 µM in assay [5]; 28.2 µM in [6]. Besides, the TGI in [7] is 23.6 µM; in [8], 39 µM; in assay [9], above 100 µM; in assay [10] it was above 100 µM.

As to `CCCCCCCCCCCCCCCCNc1nc(=O)n(C2OC(C)C(O)C2O)cc1F` (stereo unspecified), the TGI stood at 39 µM in [1]; 30.5 µM in [2]; 36.3 µM in [3]; 43.4 µM in assay [4]; 36 µM in assay [5]; 39.1 µM in assay [6]. The TGI in assay [7] was found to be 58.7 µM; in assay [8] it was 39.3 µM; in [9], 43.8 µM; in [10] it was 31.2 µM.
